Reference: patent publication EP0765868A1, “Substituted bezoyl guanidines, process for their preparation, their use as antiarrhythmics or diagnostic agent as well as pharmaceuticals containing them” (HOECHST AKTIENGESELLSCHAFT, priority 1995, dated 1997)
Where a name gives a salt, the structure may show the parent alone.

What was measured:
[1] = target: T1, Na^+/H^+-Exchanger (Oryctolagus cuniculus, UniProt P23791); experiment: Inhibition of the Na+/H+ exchanger of rabbit erythrocytes (amiloride-sensitive Na+ influx, flame photometry); type: cell-based, Kaninchen; details: Kaninchenerythrocyten; hyperosmolar salt-sucrose medium, pH 7,4, 37°C
T1 construct: den Na^+-Influx in die Erythrocyten via Na^+/H^+-Austausch flammenphotometrisch bestimmen zu können; from tissue; host or cells: Erythrocytes in whole blood from the ear arteries of cholesterol-fed White New Zealand rabbits
Text: Inhibition des Na^+/H^+-Exchangers von Kaninchenerythrocyten
Weiße Neuseeland-Kaninchen (Ivanovas) erhielten eine Standard-Diät mit 2% Cholesterin für sechs Wochen, um den Na^+/H^+-Austausch zu aktivieren und so den Na^+-Influx in die Erythrocyten via Na^+/H^+-Austausch flammenphotometrisch bestimmen zu können. Das Blut wurde den Ohrarterien entnommen und durch 25 IE Kalium-Heparin ungerinnbar gemacht. Ein Teil jeder Probe wurde zur Doppelbestimmung des Hämatokrits durch Zentrifugieren benutzt. Aliquots von jeweils 100 µl dienten zur Messung des Na^+-Ausgangsgehalts der Erythrocyten.
Um den Amilorid-sensitiven Natrium-Influx zu bestimmen, wurden 100 µl jeder Blutprobe in jeweils 5 ml eines hyperosmolaren Salz-Sucrose-Mediums (mmol/l: 140 NaCl, 3 KCl, 150 Sucrose, 0,1 Ouabain, 20 Tris-hydroxymethylaminomethan) bei pH 7,4 und 37°C inkubiert. Die Erythrocyten wurden danach dreimal mit eiskalter MgCl2-Ouabain-Lösung (mmol/l: 112 MgCl2, 0,1 Ouabain) gewaschen und in 2,0 ml destilliertem Wasser hämolysiert. Der intrazelluläre Natriumgehalt wurde flammenphotometrisch bestimmt.
Der Na^+-Nettoinflux wurde aus der Differenz zwischen Natrium-Ausgangswerten und dem Natriumgehalt der Erythrocyten nach Inkubation errechnet. Der Amilorid-hemmbare Natrium-Influx ergab sich aus der Differenz des Natriumgehalts der Erythrocyten nach Inkubation mit und ohne Amilorid 3 x 10^-4 mol/l. Auf diese Weise wurde auch bei den erfindungsgemäßen Verbindungen verfahren.

[2] = tested on: Rattenherzen; details: isolated animal hearts (rat); Eur. Heart J. 9 (suppl.1): 167 (1988); cited from earlier work

T1 sequence (P23791 whole entry): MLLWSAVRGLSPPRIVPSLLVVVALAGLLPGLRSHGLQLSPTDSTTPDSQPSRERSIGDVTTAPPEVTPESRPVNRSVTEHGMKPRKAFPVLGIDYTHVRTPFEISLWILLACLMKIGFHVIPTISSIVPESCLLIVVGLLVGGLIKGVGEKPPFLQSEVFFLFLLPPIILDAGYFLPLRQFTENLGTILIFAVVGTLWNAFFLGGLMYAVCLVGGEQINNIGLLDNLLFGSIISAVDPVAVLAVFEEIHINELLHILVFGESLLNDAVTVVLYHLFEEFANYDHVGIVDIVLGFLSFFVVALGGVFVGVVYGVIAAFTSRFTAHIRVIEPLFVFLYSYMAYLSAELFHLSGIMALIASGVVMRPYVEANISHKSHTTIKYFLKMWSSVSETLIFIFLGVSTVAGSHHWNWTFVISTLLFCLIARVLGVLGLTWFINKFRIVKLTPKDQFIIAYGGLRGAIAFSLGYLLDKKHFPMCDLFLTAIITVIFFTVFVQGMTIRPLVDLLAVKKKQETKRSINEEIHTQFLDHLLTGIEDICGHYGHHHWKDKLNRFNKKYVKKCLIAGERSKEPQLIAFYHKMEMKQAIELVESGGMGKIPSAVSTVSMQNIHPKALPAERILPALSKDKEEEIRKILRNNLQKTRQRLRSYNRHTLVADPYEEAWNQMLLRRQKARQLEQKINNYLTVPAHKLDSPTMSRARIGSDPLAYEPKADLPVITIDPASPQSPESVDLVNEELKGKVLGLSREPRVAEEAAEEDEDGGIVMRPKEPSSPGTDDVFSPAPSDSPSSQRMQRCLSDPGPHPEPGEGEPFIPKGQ

Row | SMILES | IC50 [1] | künstlich ausgelöstes Kammerflimmern [2]
1 | NC(N)=NC(=O)c1ccc(F)c(C(O)(O)C(F)(F)F)c1 [Beispiel 2, 4-Fluor-3-(1',1'-Bishydroxy-2',2',2'-trifluor)ethyl-benzoylguanidinhydrochlorid] | 1 µM | –
2 | CCN(c1nc(N)c(C(=O)NC(=N)N)nc1Cl)C(C)C [Ethylisopropylamilorid] | – | Noch potenter als Amilorid
3 | NC(N)=NC(=O)c1ccc(C(O)(O)C(F)(F)F)cc1 [Beispiel 1, 4-(1',1'-Bishydroxy-2',2',2'-trifluor)-ethyl-benzoylguanidinhydrochlorid] | 1.5 µM | –
4 | CC(C)c1ccc(C(=O)N=C(N)N)cc1C(O)(O)C(F)(F)F [Beispiel 3, 4-Isopropyl-3-(1',1'-bis-hydroxy-2',2',2'-trifluor)-ethylbenzoylguanidin-hydrochlorid] | 0.3 µM | –
5 | N=C(N)NC(=O)c1nc(Cl)c(N)nc1N [Amilorid] | – | völlig unterdrückt
